Laboratory results: US20110312961A1, “2,5-Disubstituted Morpholine Orexin REceptor Antagonists” (priority 2008, published 2011)

Tests used:
[1] = system: ovalbumin-sensitized mice; assay: Airway hyperresponsiveness (Penh) and BALF cell counts; type: in vivo, mouse
Procedure: Using the method of Hamelmann et al, (2S,3R)—N-2-((3-pyridinyl)methyl)-1-azabicyclo[2.2.2]oct-3-yl)-3,5-difluorobenzamide was evaluated for possible inhibition of airway hyper-responsiveness in mice. Briefly, ovalbumin (OVA)-sensitized animals, 12 animals per group, were challenged by nasal inhalation with aerosolized 5% OVA for 25 min on days 21, 23, and 25. The mice were treated with vehicle or (2S,3R)—N-2-((3-pyridinyl)methyl)-1-azabicyclo[2.2.2]oct-3-yl)-3,5-difluorobenzamide subcutaneously (s.c.) twice daily from day 21 to day 26 or once daily intratracheally (i.t.), preceding ovalbumin aerosol challenge by 30 min on days 21, 23 and 25 as well as methacholine challenge or bronchoalveolar lavage fluids (BALF) harvest on day 26. Dexamethasone, the reference standard, was administered at 3 mg/kg orally (p.o.) once daily 60 min before OVA challenge on day 21, 23 and 25 and 60 min before methacholine provocation or BALF harvest on day 26. Noninvasive measurements of airway responsiveness were performed by using whole body plethysmography, in which increases in enhanced pause (Penh) serve as an index of airway obstruction. Responses to inhaled methacholine were measured and calculated as percentage of respective baseline values. Unpaired Students t-test was used for comparison between the vehicle control and the sham group; one-way ANOVA and Dunnett's post-hoc analyses were applied for comparison between the vehicle control and treated groups. Statistical significance is considered at P<0.05.

[2] = Aqueous solubility of salts (salt screen); type: physicochemical; conditions: target 10 mg/ml at 25° C., unbuffered
db/db mouse = assay: Murine model of type 2 diabetes mellitus (db/db); type: in vivo; conditions: MLA 3 mg/kg daily via gavage with Compound A 1.0 mg/kg, obese mice
Excerpt: The db/db mouse, a well established model of type 2 diabetes mellitus, is a leptin-deficient mutant that expresses an obese phenotype and also commonly expresses metabolic symptoms including hyperglycemia, hyperlipidemia and hyperinsulinemia (Halaas et al., 1995 and Lee et al., 1996). This experimental animal model of diabetes was employed in a study designed to determine the effects of (2S,3R)—N-2-((3-pyridinyl)methyl)-1-azabicyclo[2.2.2]oct-3-yl)-3,5-difluorobenzamide on body mass and several additional metabolic parameters.
In this study, (2S,3R)—N-2-((3-pyridinyl)methyl)-1-azabicyclo[2.2.2]oct-3-yl)-3,5-difluorobenzamide was repeatedly administered orally (via gavage) at 1.0 mg/kg once daily starting from the age of approximately 3 weeks and continuing throughout the 7-week study. Nondiabetic heterozygote littermate mice (db/+; designated “Db”) were used as controls. Body weight and food intake were determined twice weekly. The α7 antagonist methyllycaconitine (MLA) was also given concurrently via gavage at 3 mg/kg daily to selected cohorts of db/db (designated “db”) or db/+mice. At the end of the 7-week dosing regimen, total growth rates (overall body weight gain) and average daily food intake were calculated. In addition, glucose levels were assessed in mice fasted overnight. Furthermore, blood sample analytes from mice fasted overnight were collected for measurements of tumor necrosis factor-a (TNF-α), triglycerides and glycosylated hemoglobin (HbA1c). All data are expressed as mean±SEM. For each parameter investigated, differences among all groups were compared by one-way ANOVA with post-hoc Neuman-Keuls multiple comparison test.

[3] = system: STZ rat model of diabetic neuropathy; assay: Streptozotocin (STZ)-induced diabetic neuropathy, Von Frey allodynia; type: in vivo; conditions: 150 mg/kg i.p., 2 hours before testing, all treatment days, vs pretreatment and vehicle, p<0.01
Excerpt: Peripheral neuropathy, a major complication of diabetes, often results in spontaneous pain or the perception of pain from contact with a normally non-noxious stimulus. Such neuropathic pain is experienced by 20-24% of diabetic patients, or approximately 30 million people worldwide (Schmader, 2002). The streptozotocin (STZ)-induced diabetes model in rats provides a means to evaluate the efficacy of test compounds that offer therapeutic potential for peripheral neuropathy and to understand their putative mechanism of action. In this model, a single injection of STZ, an antibiotic that mimics clinical diabetes by causing irreversible damage to the pancreatic β and α-cells leads to chronic hyperglycemia, nerve dysfunction and pain sensitivity. The current study utilizes the STZ rat model of diabetic neuropathy to investigate the effects of (2S,3R)—N-2-((3-pyridinyl)methyl)-1-azabicyclo[2.2.2]oct-3-yl)-3,5-difluorobenzamide on mechanical allodynia, an assessment of pain.
Diabetes was induced by a 0.5 ml injection of streptozotocin (60 mg/kg) dissolved in citrate buffer (pH) into the tail vein of each rat The development of diabetes was confirmed by measuring the blood glucose levels (BGL) of all animals on study day 3 (BGL>300 mg/dL). […] These animals were tested again for their BGL at study day 23.
(2S,3R)—N-2-((3-pyridinyl)methyl)-1-azabicyclo[2.2.2]oct-3-yl)-3,5-difluorobenzamide (0.1, 1 or 10 mg/kg p.o.) was administered as a solution of the hydrochloride salt in water once daily starting on study day 14 or study day 16 and continuing through study day 21 or 23, respectively. The control article gabapentin (in 0.9% saline, 150 mg/kg i.p.) was only administered on allodynia test days. Test item, vehicle or control article administration was based on evaluation of allodynia on study day 14. If allodynia was not present on study day 14, the animal was evaluated again at study day 16. Pain response was measured either on study days 14 and 21 or 16 and 23, 30 minutes after Test Item administration.
For the allodynia assessments, Von Frey filaments were used according to the methods of Chaplan and colleagues (1994). Briefly, the rats were placed in an enclosure and positioned on a metal mesh surface, but allowed to move freely. The rats' cabins were covered with red cellophane to diminish environmental distributions. The test began after cessation of exploratory behavior.
When the tip of a Von Frey fiber of given length and diameter was pressed against the skin at right angles, the force of application increases as long as the researcher continued to advance the probe until the fiber bent. After the fiber bent, the probe was advanced, causing the fiber to bend more, but without additional force being applied. The animal would indicate sensation by pulling back its paw. In the absence of a paw withdrawal response to the initially selected filament, a stronger stimulus was presented; in the event of paw withdrawal, the next weaker stimulus was chosen. In this fashion, the resulting pattern of positive and negative responses was used to determine the paw withdrawal threshold.
The set of Von Frey monofilaments provide an approximate logarithmic scale of actual force and a linear scale of perceived intensity. Below is a table showing the force (g) and its corresponding size of monofilaments.
All normally distributed data are presented as means±SEM, as well as the animals' individual values followed by a student T-test (Software: Microsoft® Excel). A p value <0.05 is considered to represent a significant difference. Due to the non-normal distribution of the allodynia data, descriptions of those data are provided as both mean (±SEM) and median values in order to represent their imprecise nature and skewed distribution.

CD-1 mice = assay: Formalin test; type: in vivo, mouse; conditions: 5 mg/kg s.c., positive control
Procedure: One of the most clinically predictive screening models of acute pain is the formalin test in mice (LeBars et al., 2001). In this paradigm, originally described by Dubuisson and Dennis (1977), a diluted solution of formalin is injected into the plantar surface of a subject's (rat or mouse) rear paw and nociceptive behavior is measured; for instance, licking and biting of the injected paw. Two phases of the response are observed. First an early phase, starting immediately after injection and lasting 5-10 minutes, followed by a late phase that can last from 15-60 minutes after injection. Nociceptive response is attributed to direct chemical stimulation in the early phase and inflammation/persistent pain in the later phase (Dubuisson and Dennis, 1977). The response in the late phase also depends on changes in processing of information in the spinal cord due to the afferent barrage during the early phase (Coderre et al., 1990). An advantage of the test is that two different types of stimuli are employed in the same assay to study the possibility of varying analgesic effects of a drug in the two phases of the test (Tjølsen and Hole, 1997).
Subjects (adult male CD-1 mice (Charles River, Raleigh, N.C.) weighing approximately 20-25 grams) were removed from their home cage and weighed, then placed in a clear Plexiglas™ observation box for an acclimation period of 20-30 minutes. Mice were then removed from the observation chambers and (2S,3R)—N-2-((3-pyridinyl)methyl)-1-azabicyclo[2.2.2]oct-3-yl)-3,5-difluorobenzamide (as the hydrochloride salt in 0.9% saline) (1, 3 or 10 mg/kg s.c. (calculated with respect to the free base)), morphine (5 mg/kg; s.c.) or 0.9% saline vehicle was administered subcutaneously in a volume of 1 mL/kg. Mice were then returned to the chamber for the predetermined pretreatment time of 30 minutes for (2S,3R)—N-2-((3-pyridinyl)methyl)-1-azabicyclo[2.2.2]oct-3-yl)-3,5-difluorobenzamide and morphine.
After the test compound pretreatment time, the animals were injected with formalin solution (2.5% derived as a 1:4 dilution of 10% phosphate buffered formalin solution (Sigma):distilled water). The subject's assigned paw was gasped gently and formalin solution was injected into the paw intra-dermally in the middle on the dorsal side. Once injected, the subject was immediately returned to its observation chamber and a timer was started to mark the beginning of Phase I. Each subject was videotaped for the entire 40-minute session. […] The time spent licking during that 1 min interval was recorded, and the presence or absence of paw favoring was noted.
For data analyses, phase I of the test was defined as 0 to 5 minutes after formalin injection, and phase II was defined as 20 to 40 minutes after formalin injection. The time spent licking during the 1 minute intervals during those time frames was recorded and graphed as mean±S.E.M. For comparisons across treatment groups, 1-way analyses of variance (ANOVAs) were performed for each phase of the session with treatment as the […] variable. Post-hoc analyses were performed when appropriate to determine specific group differences.

Sprague-Dawley rats = assay: Complete Freund's adjuvant (CFA)-induced thermal hyperalgesia; type: in vivo, rat; conditions: 3 mg/kg s.c., 1 hour after dosing, reference standard
Procedure: Injection of complete Freund's adjuvant (CFA) in rats is commonly used to evaluate compounds with potential for use as drugs in treatment of mono-arthritis (osteo-arthritis) and other inflammatory conditions. Signs of hyperalgesia develop within 24 h (Schaible and Grubb, 1993).
(2S,3R)—N-2-((3-pyridinyl)methyl)-1-azabicyclo[2.2.2]oct-3-yl)-3,5-difluorobenzamide was evaluated for possible analgesia effect in the CFA-induced thermal hyperalgesia test in rats using methods similar to those described by Walker and colleagues (2003). Briefly, adult male Sprague-Dawley rats (BioLasco, Taiwan) weighing 180±20 g on receipt were randomly assigned to treatment groups of n=8 per group. Animals each received a sub plantar injection (0.1 mL) of CFA (DIFCO, 264010; 0.1% solution) to the right hind paw at 24 h prior to experimental testing. Thermal hyperalgesia was tested using a Paw/Tail stimulator analgesia meter (IITC Model-336G, IITC, USA) with a thermally regulated glass floor set at 30° C. […] The time required for the animal to withdraw the paw from the thermal stimulus was automatically recorded. […]
Twenty-four hours after CFA injection, subjects were pre-selected (for clear presence of thermal hyperalgesia) for experimentation only if the latency to withdrawal was less than 75% of the baseline. […] The post-treatment level of thermal hyperalgesia was then measured at 60 minutes post-treatment. […]

Compound: C[C@@H]1C[C@H]2[C@@H]3CCC4=CC(=O)C=C[C@]4(C)[C@@]3(F)[C@@H](O)C[C@]2(C)[C@@]1(O)C(=O)CO [Dexamethasone, reference compound]
- methacholine (10 and 30 mg/mL)-induced increase in Penh values ([1]; 3 mg/kg PO once daily, reference standard): significant inhibition
- increase in total WBC, neutrophils, lymphocytes, monocytes and eosinophils in BALF ([1]; 3 mg/kg p.o. once daily): inhibited significantly

Compound: Cl.O=C(N[C@@H]1C2CCN(CC2)[C@H]1Cc1cccnc1)c1cc(F)cc(F)c1 [Hydrochloride mono salts]
- Aqueous Solubility [2]: >10000 µg/mL

Compound: O=C(N[C@@H]1C2CCN(CC2)[C@H]1Cc1cccnc1)c1cc(F)cc(F)c1.O=C(O)/C=C/C(=O)O [Fumarate mono salt]
- Aqueous Solubility [2]: >10000 µg/mL

Compound: O=C(N[C@@H]1C2CCN(CC2)[C@H]1Cc1cccnc1)c1cc(F)cc(F)c1.O=P(O)(O)O [Phosphate mono salts]
- Aqueous Solubility [2]: >10000 µg/mL

Compound: O=C(N[C@@H]1C2CCN(CC2)[C@H]1Cc1cccnc1)c1cc(F)cc(F)c1.O=C(N[C@@H]1C2CCN(CC2)[C@H]1Cc1cccnc1)c1cc(F)cc(F)c1.O=C(O)c1ccc(O)cc1 [4-Hydroxybenzoate mono salt]
- Aqueous Solubility [2]: >10000 µg/mL

Compound: CCN1C[C@]2(COC(=O)c3ccccc3N3C(=O)C[C@H](C)C3=O)CC[C@H](OC)[C@@]34[C@@H]5C[C@H]6[C@H](OC)[C@@H]5[C@](O)(C[C@@H]6OC)[C@@](O)([C@@H](OC)[C@H]23)[C@@H]14 [MLA, methyllycaconitine, reference compound]
- effect of MLA co-administration on the inhibition of fasting plasma glucose (db/db mouse): not reversed
- effect of MLA co-administration on the reduced food consumption (db/db mouse): failed to show the reduced daily average food consumption
- effect of MLA co-administration on the reduced weight gain (db/db mouse): failed to show the reduced weight gain
- effect of MLA co-administration on the reduction in glycosylated HbA1c (db/db mouse): attenuated
- effect of MLA co-administration on the reduction in triglycerides (db/db mouse): not attenuated
- effect of MLA co-administration on the reduction of TNF alpha (db/db mouse): inhibited

Compound: NCC1(CC(=O)O)CCCCC1 [gabapentin, reference compound]
- tactile allodynia [3]: reversed the tactile allodynia significantly

Compound: CN1CC[C@]23c4c5ccc(O)c4O[C@H]2[C@@H](O)C=C[C@H]3[C@H]1C5 [morphine, reference compound]
- efficacy, phase I (CD-1 mice): efficacious
- efficacy, phase II (CD-1 mice): efficacious
- analgesic effect on CFA-induced thermal hyperalgesia (Sprague-Dawley rats): significant analgesic activity
